The record followed here is US5591741A, “Fungicidal spiroheterocyclic derivatives” (American Cyanamid Company, priority 1993, dated 1997).

Common to all, as to conditions: Table VIa; host plants sprayed; solution of 400 ppm and dilutions
For assay [1], the system named is Venturis inaequalis. Put plainly: In vivo fungicidal activity, Apple Scab (AS).
Assay [2] deals with Plasmopara viticola. Put plainly: In vivo fungicidal activity, Grape Downy Mildew (GDM). Further: ranges in brackets are in %.
For assay [3], the system named is Botrytis cinerea. Put plainly: In vivo fungicidal activity, Pepper Botrytis (PB). Further: ranges in brackets are in %.
In assay [4] the test system is Pyricularia oryzae. The class given is in vivo.
Assay [5] relates to Cercospora beticola. Put plainly: In vivo fungicidal activity, Sugar Beet Cercospora (SBC). Further: ranges in brackets are in %.
The subject of assay [6] is Alternaria solani. Put plainly: In vivo fungicidal activity, Tomato Early Blight (TEB). Further: ranges in brackets are in %.
Assay [7] deals with Erysiphe graminis f. sp. tritici. Put plainly: In vivo fungicidal activity, Wheat Powdery Mildew (WPM).
For assay [8], the system named is Septoria nodorum. Put plainly: In vivo fungicidal activity, Wheat Blotch (WSN). The protocol:
Test compounds are dissolved in acetone and diluted with deionized water containing about 0.05% TWEEN 20®, a polyoxyethylene sorbitan monolaurate surfactant manufactured by Atlas Chemical Industries, to give a concentration of 400 ppm. Subsequent dilutions are made with an 0.05% aqueous solution of TWEEN 20®.
Host plants are sprayed with test solution, dried and inoculated with fungi. When disease symptom development is optimal, the plants are rated for disease control according to the rating scale shown below. Each test contains inoculated treated plants, inoculated untreated plants and a reference standard. When more than one test is run, the data are averaged.

As to `CC(C)(C)C1CCC2(CC1)CC(CCNC1CCC3CCCCC3C1)CO2` (stereo not drawn) [Compound 198], the “disease control rating AS (Apple Scab)” value in assay [1] is 6 (75-89). For the same compound, the “disease control rating GDM” value in assay [2] is listed as 6 (75-89). In assay [3], the “disease control rating PB” value is reported as 7 (90-95). Besides, in assay [4], the “disease control rating RB” value is 0 (0). For the same compound, the “disease control rating SBC” value in assay [5] is on record as 8 (96-99). The “disease control rating TEB” value in assay [6] is listed as 6 (75-89). The “disease control rating WPM” value in assay [7] was 8 (96-99). The “disease control rating WSN” value in assay [8] is given as 8 (96-99).

As for `CN(CCC1COC2(CCC(C(C)(C)C)CC2)C1)C1CCCCC1` (stereo not drawn) [Compound 199], the “disease control rating AS (Apple Scab)” value in assay [1] is listed as 6 (75-89). Besides, the “disease control rating GDM” value in assay [2] is given as 5 (60-74). Also, in assay [3], the “disease control rating PB” value is reported as 7 (90-95). The “disease control rating RB” value in assay [4] is recorded as 0 (0). For the same compound, the “disease control rating SBC” value in assay [5] is 3 (30-44). Moreover, in assay [6], the “disease control rating TEB” value is listed as 4 (45-59). The “disease control rating WPM” value in assay [7] is listed as 8 (96-99). For the same compound, the “disease control rating WSN” value in assay [8] is recorded as 7 (90-95).

For the compound `CCN(CCC1COC2(CCC(C(C)(C)C)CC2)C1)C1CCCCC1` (stereo not drawn) [Compound 200], the “disease control rating AS (Apple Scab)” value in assay [1] is 7 (90-95). Besides, in assay [2], the “disease control rating GDM” value is reported as 5 (60-74). Besides, the “disease control rating PB” value in assay [3] is recorded as 8 (96-99). The “disease control rating RB” value in assay [4] is recorded as 0 (0). Besides, the “disease control rating SBC” value in assay [5] is reported as 8 (96-99). For the same compound, in assay [6], the “disease control rating TEB” value is on record as 0 (0). For the same compound, the “disease control rating WPM” value in assay [7] was 8 (96-99). Moreover, the “disease control rating WSN” value in assay [8] was 8 (96-99).

As for `CCCCCC(C)N(C)CCC1COC2(CCC(C(C)(C)C)CC2)C1` (stereo not drawn) [Compound 201], the “disease control rating AS (Apple Scab)” value in assay [1] is on record as 6 (75-89). For the same compound, the “disease control rating GDM” value in assay [2] is recorded as 7 (90-95). Further, the “disease control rating PB” value in assay [3] was 3 (30-44). In addition, the “disease control rating RB” value in assay [4] is recorded as 0 (0). Moreover, the “disease control rating SBC” value in assay [5] is reported as 6 (75-89). Further, the “disease control rating TEB” value in assay [6] is 0 (0). The “disease control rating WPM” value in assay [7] is 8 (96-99). In addition, in assay [8], the “disease control rating WSN” value is on record as 5 (60-74).

With `CCCCCC(C)N(CC)CCC1COC2(CCC(C(C)(C)C)CC2)C1` (stereo not drawn) [Compound 202], the “disease control rating AS (Apple Scab)” value in assay [1] is on record as 6 (75-89). The “disease control rating GDM” value in assay [2] is recorded as 5 (60-74). In addition, the “disease control rating PB” value in assay [3] is 7 (90-95). In assay [4], the “disease control rating RB” value is on record as 0 (0). In addition, the “disease control rating SBC” value in assay [5] is 7 (90-95). Moreover, the “disease control rating TEB” value in assay [6] was 0 (0). The “disease control rating WPM” value in assay [7] is on record as 8 (96-99). For the same compound, the “disease control rating WSN” value in assay [8] is on record as 5 (60-74).

Turning to `CC(C)(C)C1CCC2(CC1)CC(CCN1CCCCC1)CO2` (stereo not drawn) [Compound 203], in assay [1], the “disease control rating AS (Apple Scab)” value is 0 (0). For the same compound, the “disease control rating GDM” value in assay [2] is given as 0 (0). The “disease control rating PB” value in assay [3] is given as 8 (96-99). In addition, the “disease control rating RB” value in assay [4] is 0 (0). For the same compound, the “disease control rating SBC” value in assay [5] is 8 (96-99). In assay [6], the “disease control rating TEB” value is listed as 6 (75-89). Moreover, the “disease control rating WPM” value in assay [7] is recorded as 8 (96-99). In assay [8], the “disease control rating WSN” value is on record as 6 (75-89).
